Source: ChEMBL document CHEMBL1201862, “PubChem BioAssay data set” (2004)
The source made the active and inactive calls. Rule as the data show it: actives have a measured IC50 and inactives only a lower limit.

Molecular target: Envelope glycoprotein gp160 (Human immunodeficiency virus 1, UniProt Q6QLK5)
Experiment: cell-free HIV fusion peptide-binding blockers – biochemical, uHTS, fluorescence dequenching, […] (AID 1986)

Sequence of Envelope glycoprotein gp160 (Q6QLK5 whole entry, the tested form may be a part): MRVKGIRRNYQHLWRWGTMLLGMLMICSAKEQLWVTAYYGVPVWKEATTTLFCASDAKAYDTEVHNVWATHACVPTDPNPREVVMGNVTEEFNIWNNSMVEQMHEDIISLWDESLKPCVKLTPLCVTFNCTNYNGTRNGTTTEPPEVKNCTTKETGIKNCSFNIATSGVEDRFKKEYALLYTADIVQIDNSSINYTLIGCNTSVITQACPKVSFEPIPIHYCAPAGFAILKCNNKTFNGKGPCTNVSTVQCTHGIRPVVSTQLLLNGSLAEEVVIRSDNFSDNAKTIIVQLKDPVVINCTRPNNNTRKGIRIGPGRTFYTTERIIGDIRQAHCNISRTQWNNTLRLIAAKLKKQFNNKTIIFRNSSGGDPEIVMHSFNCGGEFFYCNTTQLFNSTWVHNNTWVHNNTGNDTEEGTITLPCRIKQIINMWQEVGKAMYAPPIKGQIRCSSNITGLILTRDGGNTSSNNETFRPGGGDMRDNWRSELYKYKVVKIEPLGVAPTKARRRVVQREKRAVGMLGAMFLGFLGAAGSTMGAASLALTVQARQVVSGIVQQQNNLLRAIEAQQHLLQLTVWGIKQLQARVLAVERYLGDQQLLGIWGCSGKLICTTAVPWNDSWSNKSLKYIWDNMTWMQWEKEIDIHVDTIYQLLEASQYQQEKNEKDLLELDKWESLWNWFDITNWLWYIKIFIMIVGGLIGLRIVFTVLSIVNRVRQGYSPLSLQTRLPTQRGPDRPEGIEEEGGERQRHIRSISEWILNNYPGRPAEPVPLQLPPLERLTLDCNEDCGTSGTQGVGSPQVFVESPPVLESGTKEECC

Row | Structure (SMILES) | IC50
1 | CCCOc1ccc(C(=O)NNC(=S)NC(=O)c2cc(-c3ccc(Cl)cc3)nc3ccccc23)cc1 | 19.9 µM (active)
2 | O=C1/C(=C2\C(=O)N(Cc3ccc(F)cc3)c3ccccc32)SC(=S)N1CCS(=O)(=O)O | 15 µM (active)
3 | CCOc1cc(/C=N/NC2=NC(=O)C(CC(=O)O)S2)ccc1OCc1ccc(Cl)cc1 (stereo not drawn) | 24.6 µM (active)
